What was measured:
[1] = Release of lens drug (dexamethasone): drug loading, moist heat sterilization and release in saline, HPLC; assay type: physicochemical; details: 121° C., 30 minutes
Protocol: (§1) Sampling time point: 0, 2, 4 and 8 hours (N=3)
(1) Single drug-loaded lens was placed in a 5 mL ampoule. 1 mL of saline was added as a release medium. The lens was placed in a shake oven (MS Hybridization Shaking Oven, MO-AOR, Major Science), and a drug release test was conducted under the operating parameters of 35° C. and 100 rpm. The drug release solution was replaced with fresh saline every 2 hours.
(2) The drug content in the lens preservation solution and the drug content in the lens were analyzed by HPLC with RP-C18 column. The extraction method of drug (Dexamethasone, DEX) in the lens: one lens was taken out of the preservation solution. Lens surface moisture was fully absorbed with a lens cleaning paper. The one lens was immersed in 1 mL of methanol to stand for 8 hours to extract the drug. Then the drug content was analyzed by HPLC.

[2] = Release of lens drug (menthol): drug loading, moist heat sterilization and release in saline, HPLC; assay type: physicochemical; details: 121° C., 30 minutes
Protocol: as §1
First group: P-2.5HPC7/P6k-38CL
(1) Single drug-loaded lens was placed in a 5 mL ampoule. 1 mL of saline was added as a release medium. The lens was placed in a shake oven (MS Hybridization Shaking Oven, MO-AOR, Major Science), and a drug release test was conducted under the operating parameters of 35° C. and 100 rpm. No release solution was replaced throughout. Sampling: the lens was taken out at each time point. The drug was extracted with ethanol (98 wt %). The drug content was analyzed by HPLC with RP-C18 column. After the lens was taken out, no drug release test was performed.
(2) The extraction method of menthol in the lens: one lens was taken out of the ampoule used for the release test. Lens surface moisture was fully absorbed with a lens cleaning paper. The one lens was immersed in 1 mL of ethanol (98 wt %) to stand for 8 hours to extract the drug. Then the drug content was analyzed by HPLC.

Row | Structure (SMILES) | loss caused by the moist heat sterilization [1] | menthol in the lens preservation solution after the moist heat sterilization [2]
1 | Cn1c(=O)c2c(ncn2C)n(C)c1=O [caffeine] | hardly causes the loss | –
2 | CC1CCC(C(C)C)C(O)C1 (centres unmarked) [menthol] | – | most of the menthol in the lens preservation solution escapes

From patent US20220202610A1, “CONTACT LENS WITH SUSTAINED RELEASE PROPERTY” (priority 2020, published 2022)
